Measured values: patent publication US20250170248A1, “SMARCA DEGRADERS AND USES THEREOF” (Kymera Therapeutics, Inc., priority 2021, published 2025)

Assays:
Assay type in all cases: cell-based
SMARCA2 [1] = target: T1, SMARCA2 (Homo sapiens, UniProt P51531); assay: MSD SMARCA2 degradation in A549 cell line; conditions: for Dmax: A549, A549 cells; for Dmax / DC50: 24 h; for DC50: read-out: SMARCA2 MSD A549 degradation 24 h: Average external-Abs DC50
Procedure, shortened: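 SMARCA2 protein remaining after 24 h exposure of A549 cells (top concentration 1000 nM, 3-fold dilutions) was measured by MSD electrochemiluminescence immunoassay of cell lysates. Results are given as binned DC50 and maximal degradation (Dmax) codes.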

SMARCA4 = target: T2, SMARCA4 (Homo sapiens, UniProt P51532); assay: SMARCA4 Western blot degradation in MV4-11 cells; conditions: for Dmax: MV4-11, MV4-11 cells, read-out: SMARCA4 MSD MV411 degradation 24 h: average Dmax %; for Dmax / DC50: 24 h; for DC50: read-out: SMARCA4 MSD MV411 degradation 24 h: Mean external-Abs DC50
T2 construct: SMARCA2/SMARCA4 protein degradation selectivity in MV4-11 cells; endogenous in cells; host or cells: MV4-11
T2 sequence (P51532 whole entry): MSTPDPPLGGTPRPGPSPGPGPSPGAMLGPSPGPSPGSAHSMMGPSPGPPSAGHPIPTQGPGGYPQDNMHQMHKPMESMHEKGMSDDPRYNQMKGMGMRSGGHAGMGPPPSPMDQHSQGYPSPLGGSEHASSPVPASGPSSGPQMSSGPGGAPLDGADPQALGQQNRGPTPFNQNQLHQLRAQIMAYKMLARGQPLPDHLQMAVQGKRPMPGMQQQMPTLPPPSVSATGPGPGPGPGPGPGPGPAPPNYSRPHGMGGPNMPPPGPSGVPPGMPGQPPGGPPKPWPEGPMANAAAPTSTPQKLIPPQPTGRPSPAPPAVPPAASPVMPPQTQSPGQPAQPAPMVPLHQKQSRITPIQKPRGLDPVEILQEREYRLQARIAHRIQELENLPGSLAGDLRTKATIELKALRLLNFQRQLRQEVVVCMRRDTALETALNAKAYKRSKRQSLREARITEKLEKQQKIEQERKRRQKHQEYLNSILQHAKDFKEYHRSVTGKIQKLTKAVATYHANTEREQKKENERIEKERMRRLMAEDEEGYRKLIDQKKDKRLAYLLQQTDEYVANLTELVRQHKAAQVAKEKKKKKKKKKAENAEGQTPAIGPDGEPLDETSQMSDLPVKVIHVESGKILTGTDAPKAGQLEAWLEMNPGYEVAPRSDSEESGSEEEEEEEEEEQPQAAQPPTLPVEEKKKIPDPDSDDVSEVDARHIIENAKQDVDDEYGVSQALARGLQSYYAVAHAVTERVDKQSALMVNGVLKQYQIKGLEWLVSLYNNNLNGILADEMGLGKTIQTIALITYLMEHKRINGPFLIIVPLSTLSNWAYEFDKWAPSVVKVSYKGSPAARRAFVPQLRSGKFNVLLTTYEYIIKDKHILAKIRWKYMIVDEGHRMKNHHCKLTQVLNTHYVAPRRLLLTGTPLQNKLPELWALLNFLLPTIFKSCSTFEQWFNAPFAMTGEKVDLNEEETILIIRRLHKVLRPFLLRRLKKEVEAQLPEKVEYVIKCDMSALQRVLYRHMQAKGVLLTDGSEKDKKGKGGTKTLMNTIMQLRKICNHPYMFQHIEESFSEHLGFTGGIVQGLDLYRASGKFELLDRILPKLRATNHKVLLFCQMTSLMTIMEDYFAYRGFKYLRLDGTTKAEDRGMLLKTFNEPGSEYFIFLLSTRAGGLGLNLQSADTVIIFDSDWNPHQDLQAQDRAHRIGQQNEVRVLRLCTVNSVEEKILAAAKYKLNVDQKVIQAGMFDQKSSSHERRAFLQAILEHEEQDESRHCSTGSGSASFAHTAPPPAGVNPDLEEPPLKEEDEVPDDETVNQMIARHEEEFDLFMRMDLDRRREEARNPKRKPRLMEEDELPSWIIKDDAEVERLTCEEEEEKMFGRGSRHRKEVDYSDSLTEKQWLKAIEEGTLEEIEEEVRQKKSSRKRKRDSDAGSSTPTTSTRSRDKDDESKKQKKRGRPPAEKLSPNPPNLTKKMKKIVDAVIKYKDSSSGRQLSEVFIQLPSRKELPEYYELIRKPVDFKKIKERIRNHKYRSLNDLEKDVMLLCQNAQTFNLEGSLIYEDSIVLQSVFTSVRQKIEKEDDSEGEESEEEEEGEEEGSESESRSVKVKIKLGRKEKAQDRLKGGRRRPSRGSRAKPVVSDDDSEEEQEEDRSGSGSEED
Procedure, shortened: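 Protein levels quantified by LI-COR Western blot (beta-actin loading control) in RIPA lysates of MV4-11 cells after 24 h compound exposure. Degradation reported as DC50, Dmax % at 24 h and SMARCA2 vs SMARCA4 selectivity, each binned into letter codes.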

SMARCA2 [2] = target: T1, SMARCA2; assay: SMARCA2 Western blot degradation in MV4-11 cells; set-up: SMARCA2/SMARCA4 protein degradation selectivity in MV4-11 cells; endogenous in cells; host or cells: MV4-11; conditions: for Dmax: MV4-11, MV4-11 cells, read-out: SMARCA2 MSD MV411 degradation 24 h: average Dmax %; for DC50: read-out: SMARCA2 MSD MV411 degradation 24 h: Mean external-Abs DC50; for Selectivity in MV411: SMARCA2/4 selectivity

T1 sequence (P51531 whole entry): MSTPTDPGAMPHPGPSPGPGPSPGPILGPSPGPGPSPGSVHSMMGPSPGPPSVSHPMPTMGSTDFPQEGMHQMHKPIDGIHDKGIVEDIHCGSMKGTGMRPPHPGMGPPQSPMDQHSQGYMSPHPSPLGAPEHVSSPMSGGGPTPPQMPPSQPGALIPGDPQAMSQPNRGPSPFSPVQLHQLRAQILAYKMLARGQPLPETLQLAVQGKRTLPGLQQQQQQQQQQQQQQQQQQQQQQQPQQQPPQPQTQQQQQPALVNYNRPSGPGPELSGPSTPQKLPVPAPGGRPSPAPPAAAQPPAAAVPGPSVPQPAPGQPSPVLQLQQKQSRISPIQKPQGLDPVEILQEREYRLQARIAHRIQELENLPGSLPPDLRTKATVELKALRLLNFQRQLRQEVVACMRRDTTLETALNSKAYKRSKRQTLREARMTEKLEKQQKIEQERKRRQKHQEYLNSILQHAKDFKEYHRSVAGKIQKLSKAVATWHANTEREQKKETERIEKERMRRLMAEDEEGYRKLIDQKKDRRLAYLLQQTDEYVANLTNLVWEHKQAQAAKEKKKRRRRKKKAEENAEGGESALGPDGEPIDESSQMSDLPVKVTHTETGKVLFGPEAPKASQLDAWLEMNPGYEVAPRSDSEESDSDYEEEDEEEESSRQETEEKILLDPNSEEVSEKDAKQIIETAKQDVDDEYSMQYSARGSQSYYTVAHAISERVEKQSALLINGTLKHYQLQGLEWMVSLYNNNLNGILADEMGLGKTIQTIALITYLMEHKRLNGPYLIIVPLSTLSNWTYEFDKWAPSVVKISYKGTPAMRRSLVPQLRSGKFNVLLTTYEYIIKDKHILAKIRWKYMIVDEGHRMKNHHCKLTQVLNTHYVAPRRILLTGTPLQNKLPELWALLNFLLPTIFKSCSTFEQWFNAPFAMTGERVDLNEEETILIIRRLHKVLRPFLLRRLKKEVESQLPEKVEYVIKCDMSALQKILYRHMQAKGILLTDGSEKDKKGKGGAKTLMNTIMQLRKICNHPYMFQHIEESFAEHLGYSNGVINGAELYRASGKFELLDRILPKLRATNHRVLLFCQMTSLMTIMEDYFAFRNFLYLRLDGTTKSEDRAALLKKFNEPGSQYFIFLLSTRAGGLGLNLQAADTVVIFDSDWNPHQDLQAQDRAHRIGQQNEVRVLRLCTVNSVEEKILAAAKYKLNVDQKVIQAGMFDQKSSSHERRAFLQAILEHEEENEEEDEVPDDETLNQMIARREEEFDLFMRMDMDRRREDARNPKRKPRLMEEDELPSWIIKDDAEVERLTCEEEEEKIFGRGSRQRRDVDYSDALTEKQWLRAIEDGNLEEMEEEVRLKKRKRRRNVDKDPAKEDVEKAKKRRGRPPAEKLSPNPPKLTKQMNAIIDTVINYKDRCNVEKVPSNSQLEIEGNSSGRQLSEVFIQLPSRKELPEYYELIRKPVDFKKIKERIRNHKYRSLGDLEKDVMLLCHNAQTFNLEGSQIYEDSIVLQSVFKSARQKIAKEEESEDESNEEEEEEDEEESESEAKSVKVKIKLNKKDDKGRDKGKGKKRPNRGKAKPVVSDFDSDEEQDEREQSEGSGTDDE

Row | Structure (SMILES) | Dmax (SMARCA2 [1]) [%] | DC50 (SMARCA2 [1]; A549 cells) [nM] | Dmax (SMARCA4) [%] | DC50 (SMARCA4; MV4-11 cells) [nM] | Dmax (SMARCA2 [2]; 24 h) [%] | DC50 (SMARCA2 [2]; MV4-11 cells, 24 h) [nM] | Selectivity in MV411 (SMARCA2 [2]; MV4-11 cells) | SMARCA2 MSD A549 degradation 24 h: Average Dmax % (SMARCA2 [1]; A549 cells) | SMARCA4 MSD MV411 degradation 24 h: average Dmax % (SMARCA4; MV4-11 cells) | SMARCA2 MSD MV411 degradation 24 h: average Dmax % (SMARCA2 [2]; MV4-11 cells, 24 h)
1 | Cc1ncsc1-c1ccc(CNC(=O)[C@@H]2C[C@@H](O)CN2C(=O)[C@@H](NC(=O)N2CC3(CC(N4CCC(c5cnc(N6CCc7[nH]c8nnc(-c9ccccc9O)cc8c7[C@H]6C)nc5)CC4)C3)C2)C(C)(C)C)cc1 [I-58, N—((S)-1-((2S,4R)-4-hydroxy-2-((4-(4-methylthiazol-5-yl)benzyl)carbamoyl)pyrrolidin-1-yl)-3,3-dimethyl-1l-oxobutan-2-yl)-6-(4-(2-((R)-3-(2-hydroxyphenyl)-5-methyl-7,8-dihydro-5H-pyrido [3′, 4′: 4,5]pyrrolo [2,3-c]pyridazin-6(9H)-yl)pyrimidin-5-yl)piperidin-1-yl)-2-azaspiro[3.3]heptane-2-carboxamide] | > 90 | 10 to 50 | 50 to 70 | > 100 | 70 to 90 | 1 to 10 | B (B (>100-500 fold)) |  |  | 
2 | Cc1ncsc1-c1ccc(CNC(=O)[C@@H]2C[C@@H](O)CN2C(=O)[C@@H](NC(=O)N2CC3(CCC(N4CCC(c5cnc(N6CCc7[nH]c8nnc(-c9ccccc9O)cc8c7C6C)nc5)CC4)CC3)C2)C(C)(C)C)cc1 (stereo partly shown) [I-62] | 70 to 90 | > 100 | < 50 | > 100 | < 50 | > 100 | C (C (10-100 fold)) |  |  | 
3 | Cc1ncsc1-c1ccc(CNC(=O)[C@@H]2C[C@@H](O)CN2C(=O)[C@@H](NC(=O)N2CC3(CC(N4CCC(c5cnc(N6CCN7c8cc(-c9ccccc9O)nnc8NC[C@H]7C6)nc5)CC4)C3)C2)C(C)(C)C)cc1 [I-64] | > 90 | 10 to 50 | 50 to 70 | 10 to 100 | > 90 | 1 to 10 | C (C (10-100 fold)) |  |  | 
4 | COc1cc(C(C(=O)N2C[C@H](O)C[C@H]2C(=O)NCC#Cc2ccccc2OCCCCN2CCC(c3cnc(N4CCN5c6cc(-c7ccccc7O)nnc6NC[C@H]5C4)nc3)CC2)C(C)C)on1 (stereo partly shown) [I-74] | > 90 | 10 to 50 | > 90 | 1 to 10 | > 90 | < 1 | C (C (10-100 fold)) |  |  | 
5 | Cc1ncsc1-c1ccc(CNC(=O)[C@@H]2C[C@@H](O)CN2C(=O)[C@@H](NC(=O)C2CC3(C2)CC(N2CCC(N4CCC(N5CCN6c7cc(-c8ccccc8O)nnc7NC[C@H]6C5)CC4)CC2)C3)C(C)(C)C)cc1 (stereo partly shown) [I-75] | > 90 | > 100 | < 50 | > 100 | 70 to 90 | 1 to 10 | A (A (>500 fold)) |  |  | 
6 | Cc1ncsc1-c1ccc(CNC(=O)[C@@H]2C[C@@H](O)CN2C(=O)[C@@H](NC(=O)[C@H]2CC3(CC[C@H](N4CCN(c5ccnc(N6CCc7[nH]c8nnc(-c9ccccc9O)cc8c7[C@H]6C)n5)CC4)CC3)C2)C(C)(C)C)cc1 (stereo partly shown) [I-80] | > 90 | < 10 | > 90 | 1 to 10 | > 90 | < 1 | C (C (10-100 fold)) |  |  | 
7 | Cc1ncsc1-c1ccc(CNC(=O)[C@@H]2C[C@@H](O)CN2C(=O)[C@@H](NC(=O)N2CC3(CC(N4CCN(c5cnc(N6CCc7[nH]c8nnc(-c9ccccc9O)cc8c7[C@H]6C)nc5)CC4)C3)C2)C(C)(C)C)cc1 [I-82] | > 90 | < 10 | 70 to 90 | 10 to 100 | > 90 | 1 to 10 | C (C (10-100 fold)) |  |  | 
8 | Cc1ncsc1-c1ccc(CNC(=O)[C@@H]2C[C@@H](O)CN2C(=O)[C@@H](NC(=O)[C@H]2CC[C@H](c3ccc(-c4cnc(N5CCN6c7cc(-c8ccccc8O)nnc7NC[C@H]6C5)nc4)cc3)CC2)C(C)(C)C)cc1 [I-85] | > 90 | 50 to 100 | < 50 | > 100 | 70 to 90 | 10 to 100 | C (C (10-100 fold)) |  |  | 
9 | Cc1ncsc1-c1ccc(CNC(=O)[C@@H]2C[C@@H](O)CN2C(=O)[C@@H](NC(=O)[C@H]2CC[C@@H](c3ccc(-c4cnc(N5CCN6c7cc(-c8ccccc8O)nnc7NC[C@H]6C5)nc4)cc3)CC2)C(C)(C)C)cc1 [I-86] | > 90 | < 10 | > 90 | 1 to 10 | > 90 | < 1 | C (C (10-100 fold)) |  |  | 

Continued, values first:

Row | Dmax (SMARCA2 [1]) [%] | DC50 (SMARCA2 [1]; A549 cells) [nM] | Dmax (SMARCA4) [%] | DC50 (SMARCA4; MV4-11 cells) [nM] | Dmax (SMARCA2 [2]; 24 h) [%] | DC50 (SMARCA2 [2]; MV4-11 cells, 24 h) [nM] | Selectivity in MV411 (SMARCA2 [2]; MV4-11 cells) | SMARCA2 MSD A549 degradation 24 h: Average Dmax % (SMARCA2 [1]; A549 cells) | SMARCA4 MSD MV411 degradation 24 h: average Dmax % (SMARCA4; MV4-11 cells) | SMARCA2 MSD MV411 degradation 24 h: average Dmax % (SMARCA2 [2]; MV4-11 cells, 24 h) | Structure (SMILES)
10 | > 90 | > 100 | < 50 | > 100 | 70 to 90 | 1 to 10 | A (A (>500 fold)) |  |  |  | C#Cc1ccc(CNC(=O)[C@@H]2C[C@@H](O)CN2C(=O)[C@@H](NC(=O)C2CCC3(CC2)CC(N2CCC(N4CCC(C(=O)N5CCN6c7cc(-c8ccccc8O)nnc7NC[C@H]6C5)CC4)CC2)C3)C(C)(C)C)cc1 (stereo partly shown) [I-89]
11 | > 90 | > 100 | 50 to 70 | > 100 | 70 to 90 | 1 to 10 | C (C (10-100 fold)) |  |  |  | C#Cc1ccc(CNC(=O)[C@@H]2C[C@@H](O)CN2C(=O)[C@@H](NC(=O)C2CCC3(CC2)CC(N2CCC(N4CC(C(=O)N5CCN6c7cc(-c8ccccc8O)nnc7NC[C@H]6C5)C4)CC2)C3)C(C)(C)C)cc1 (stereo partly shown) [I-92]
12 |  | 10 to 50 |  | 10 to 100 |  | 1 to 10 | C (C (10-100 fold)) | A (A (>90% degradation)) | C (C (50-70% degradation)) | B (B (>70-90% degradation)) | Cc1ncsc1-c1ccc(CNC(=O)[C@@H]2C[C@@H](O)CN2C(=O)[C@@H](NC(=O)[C@H]2CCC3(CC2)C[C@H](N2CCC(c4ccc(N5CCN6c7cc(-c8ccccc8O)nnc7NC[C@H]6C5)nc4)CC2)C3)C(C)(C)C)cc1 (stereo partly shown) [I-94]
13 | < 50 | > 100 | < 50 | > 100 | < 50 | > 100 | C (C (10-100 fold)) |  |  |  | C#Cc1ccc(CNC(=O)[C@@H]2C[C@@H](O)CN2C(=O)[C@@H](NC(=O)C2CCC3(CC2)CC(N2CCC(c4ccc(N5CCN6c7cc(-c8ccccc8O)nnc7NC[C@H]6C5)cc4)CC2)C3)C(C)(C)C)cc1 (stereo partly shown) [I-95]
14 | > 90 | < 10 | > 90 | 1 to 10 | > 90 | < 1 | C (C (10-100 fold)) |  |  |  | Cc1ncsc1-c1ccc(CNC(=O)[C@@H]2C[C@@H](O)CN2C(=O)[C@@H](OC(=O)N2CC3(CC(N4CCN(c5cnc(N6CCN7c8cc(-c9ccccc9O)nnc8NC[C@H]7C6)nc5)CC4)C3)C2)C(C)(C)C)cc1 [I-96]
15 | > 90 | < 10 | > 90 | 10 to 100 | > 90 | < 1 | C (C (10-100 fold)) |  |  |  | C#Cc1ccc(CNC(=O)[C@@H]2C[C@@H](O)CN2C(=O)[C@@H](NC(=O)N2CC3(CC(N4CCC(c5cnc(N6CCN7c8cc(-c9ccccc9O)nnc8NC[C@H]7C6)nc5)CC4)C3)C2)C(C)(C)C)cc1 [I-111]
16 | > 90 | < 10 | > 90 | 10 to 100 | > 90 | 1 to 10 | C (C (10-100 fold)) |  |  |  | C#Cc1ccc(CNC(=O)[C@@H]2C[C@@H](O)CN2C(=O)[C@@H](NC(=O)N2CC3(CC(N4CCC(c5cnc(N6CCc7[nH]c8nnc(-c9ccccc9O)cc8c7[C@H]6C)nc5)CC4)C3)C2)C(C)(C)C)c(OC)c1 [I-119]
17 | > 90 | 10 to 50 | 50 to 70 | > 100 | 70 to 90 | 10 to 100 | B (B (>100-500 fold)) |  |  |  | C#Cc1ccc(CNC(=O)[C@@H]2C[C@@H](O)CN2C(=O)[C@@H](NC(=O)N2CC3(CC(N4CCC(c5cnc(N6CCc7[nH]c8nnc(-c9ccccc9O)cc8c7[C@H]6C)nc5)CC4)C3)C2)C(C)(C)C)c(F)c1 [I-120]
18 | > 90 | 50 to 100 | < 50 | > 100 | 50 to 70 | 10 to 100 | B (B (>100-500 fold)) |  |  |  | CC#Cc1ccc(CNC(=O)[C@@H]2C[C@@H](O)CN2C(=O)[C@@H](NC(=O)N2CC3(CC(N4CCC(c5cnc(N6CCc7[nH]c8nnc(-c9ccccc9O)cc8c7[C@H]6C)nc5)CC4)C3)C2)C(C)(C)C)cc1 [I-121]
19 | > 90 | > 100 | 70 to 90 | > 100 | 70 to 90 | 10 to 100 | D (D (<10 fold)) |  |  |  | C#Cc1ccc(CNC(=O)[C@@H]2C[C@@H](O)CN2C(=O)[C@@H](NC(=O)N2CC3(CC(N4CCC(c5cnc(N6CCc7[nH]c8nnc(-c9ccccc9O)cc8c7[C@H]6C)nc5)CC4)C3)C2)C(C)(C)C)c(OCCCN(C)C)c1 [I-127]
